Laboratory results taken from ChEMBL document CHEMBL1201862, “PubChem BioAssay data set” (2004).
The source made the active and inactive calls.

Key:
[1] = target: T1, Histone-lysine N-methyltransferase NSD2 (Homo sapiens, UniProt O96028); assay type: biochemical
T1 sequence (O96028 whole entry): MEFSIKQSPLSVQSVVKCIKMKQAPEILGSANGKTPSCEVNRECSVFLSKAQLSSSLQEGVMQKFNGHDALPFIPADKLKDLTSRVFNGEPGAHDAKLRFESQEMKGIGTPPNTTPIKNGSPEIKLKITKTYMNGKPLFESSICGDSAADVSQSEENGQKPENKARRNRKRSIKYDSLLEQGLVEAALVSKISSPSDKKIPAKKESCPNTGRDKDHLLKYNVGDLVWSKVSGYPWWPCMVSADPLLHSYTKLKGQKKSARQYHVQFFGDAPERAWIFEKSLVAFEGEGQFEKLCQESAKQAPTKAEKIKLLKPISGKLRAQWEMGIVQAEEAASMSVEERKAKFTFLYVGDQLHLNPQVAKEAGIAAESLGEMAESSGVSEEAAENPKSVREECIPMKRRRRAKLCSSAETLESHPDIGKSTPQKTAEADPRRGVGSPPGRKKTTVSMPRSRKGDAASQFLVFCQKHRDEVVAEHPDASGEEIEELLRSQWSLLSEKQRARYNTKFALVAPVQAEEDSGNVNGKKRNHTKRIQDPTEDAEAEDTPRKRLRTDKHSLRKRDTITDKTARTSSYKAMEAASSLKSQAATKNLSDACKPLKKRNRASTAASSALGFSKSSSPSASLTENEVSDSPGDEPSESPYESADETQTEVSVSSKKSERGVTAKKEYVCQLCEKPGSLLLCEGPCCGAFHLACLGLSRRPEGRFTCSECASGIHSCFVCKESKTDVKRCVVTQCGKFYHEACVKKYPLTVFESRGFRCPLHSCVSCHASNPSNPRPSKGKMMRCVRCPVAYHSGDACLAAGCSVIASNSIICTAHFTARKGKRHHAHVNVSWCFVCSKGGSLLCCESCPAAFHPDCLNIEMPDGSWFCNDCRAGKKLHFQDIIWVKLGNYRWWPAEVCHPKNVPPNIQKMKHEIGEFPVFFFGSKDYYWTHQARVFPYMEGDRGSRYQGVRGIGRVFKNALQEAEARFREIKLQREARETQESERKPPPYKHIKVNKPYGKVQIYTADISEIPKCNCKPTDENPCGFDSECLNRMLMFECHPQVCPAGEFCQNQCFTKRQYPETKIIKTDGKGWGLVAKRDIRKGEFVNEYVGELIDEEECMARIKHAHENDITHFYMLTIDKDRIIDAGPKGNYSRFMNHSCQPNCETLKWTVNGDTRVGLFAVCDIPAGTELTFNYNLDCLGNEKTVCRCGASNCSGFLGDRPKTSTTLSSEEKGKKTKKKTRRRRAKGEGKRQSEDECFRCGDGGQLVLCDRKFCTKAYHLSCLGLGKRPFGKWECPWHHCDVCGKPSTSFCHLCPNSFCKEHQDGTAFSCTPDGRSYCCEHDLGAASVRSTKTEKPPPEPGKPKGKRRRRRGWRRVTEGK

[2] = target: Prothrombin (Bos taurus, UniProt P00735); test: thrombin inhibition, dose response, biochemical, fluorescence polarization, uHTS hits (AID 602369); assay type: functional
[3] = target: Keap1/Nrf2 (Homo sapiens, UniProt Q14145); test: Keap1-Nrf2 protein-protein interaction inhibitors, dose response, biochemical, fluorescence polarization, cherry-picked samples (AID 588683)
[4] = target: 26S proteasome non-ATPase regulatory subunit 14 (Homo sapiens, UniProt O00487); test: inhibition of proteasome subunit RPN11 – biochemical, fluorescence polarization, uHTS hits, confirmation (AID 602368); assay type: functional
[5] = target: 72 kDa type IV collagenase (Homo sapiens, UniProt P08253); test: Dose Response validation of uHTS RPN11 inhibitor hits using a MMP-2 Fluorescence assay.; assay type: functional
[6] = target: T2, Orexin/Hypocretin receptor type 1 (Homo sapiens, UniProt O43613); test: (§1) Fluorescence-based cell-based high throughput dose response assay for antagonists of the orexin 1 receptor (OX1R; HCRTR1). [Related pubchem assays (depositor defined):AID434989, AID435008, AID463079, AID485270, AID492963, AID492964, AID492965, AID493232, AID504717, AID504718]; assay type: functional
T2 sequence (O43613 whole entry): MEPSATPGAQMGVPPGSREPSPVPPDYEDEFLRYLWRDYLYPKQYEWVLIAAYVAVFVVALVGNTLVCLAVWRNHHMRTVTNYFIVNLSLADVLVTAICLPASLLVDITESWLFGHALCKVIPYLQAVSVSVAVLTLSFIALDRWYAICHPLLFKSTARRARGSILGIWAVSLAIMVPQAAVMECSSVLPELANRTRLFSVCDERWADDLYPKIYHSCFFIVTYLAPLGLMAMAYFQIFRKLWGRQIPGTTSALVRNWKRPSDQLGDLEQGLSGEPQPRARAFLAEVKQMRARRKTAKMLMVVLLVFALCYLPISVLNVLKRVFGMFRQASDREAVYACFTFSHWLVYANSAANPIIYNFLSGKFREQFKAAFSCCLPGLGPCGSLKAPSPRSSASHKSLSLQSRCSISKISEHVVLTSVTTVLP

[7] = target: T3, Orexin receptor type 2 (Homo sapiens, UniProt O43614); test: Counterscreen assay for antagonists of the orexin 1 receptor (OX1R; HCRTR1): Homogeneous Time Resolved Fluorescence (HTRF)-based cell-based dose response assay for antagonists of the orexin 2 receptor (OX2R; HCRTR2), run by assay provider.; assay type: functional
T3 sequence (O43614 whole entry): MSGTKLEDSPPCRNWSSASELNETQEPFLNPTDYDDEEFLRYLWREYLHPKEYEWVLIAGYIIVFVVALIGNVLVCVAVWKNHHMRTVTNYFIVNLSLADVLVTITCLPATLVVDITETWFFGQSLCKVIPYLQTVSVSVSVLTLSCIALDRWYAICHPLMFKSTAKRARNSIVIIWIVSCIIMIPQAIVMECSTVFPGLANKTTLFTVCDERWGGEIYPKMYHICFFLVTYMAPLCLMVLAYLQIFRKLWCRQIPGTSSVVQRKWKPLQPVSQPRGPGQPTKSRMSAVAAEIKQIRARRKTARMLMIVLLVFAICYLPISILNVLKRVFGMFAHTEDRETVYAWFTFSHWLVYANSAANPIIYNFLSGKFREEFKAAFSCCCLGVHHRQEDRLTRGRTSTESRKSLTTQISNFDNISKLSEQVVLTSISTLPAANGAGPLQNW

[8] = target: T2, Orexin/Hypocretin receptor type 1; test: as §1, with “Homogeneous Time Resolved Fluorescence (HTRF)-based” for “Fluorescence-based”; assay type: functional
[9] = tested on: CHO-K1; test: (§2) Counterscreen for antagonists of the orexin 1 receptor (OX1R; HCRTR1): Homogeneous time resolved fluorescence (HTRF)-based cell-based dose response assay to identify antagonists of the parental CHO-K1 cell line. [Related pubchem assays (depositor defined):AID434989, AID435008, AID463079, AID485270, AID492963, AID492964, AID492965, AID493232, AID504699, AID504701]; assay type: functional; settings: Cricetulus griseus
[10] = target: T3, Orexin receptor type 2; test: Counterscreen assay for antagonists of the orexin 1 receptor (OX1R; HCRTR1): Fluorescence-based cell-based dose response assay for antagonists of the orexin 2 receptor (OX2R; HCRTR2), run by assay provider.; assay type: functional
[11] = as §2, with “Fluorescence-based” for “Homogeneous time resolved fluorescence (HTRF)-based”, “cell-based high throughput” for “cell-based”, “CHO” for “CHO-K1”; assay type: functional
[12] = tested on: Vero; test: Vero cell cytotoxicity, cytotoxicity control for flavivirus capping enzyme inhibitors (AID 588742); assay type: functional; settings: Chlorocebus sabaeus
[13] = target: Genome polyprotein (dengue virus type 2, UniProt P29990); test: Dengue-2 NS5 methyltransferase inhibitors, primary screen, biochemical, confirmation dose response (AID 588689); assay type: functional
[14] = target: Nonstructural protein 1 (Influenza A virus, UniProt Q194T2); assay type: functional, Influenza A virus (A/California/07/2009(H1N1))
[15] = target: T4, Hexokinase HKDC1 (Homo sapiens, UniProt Q2TB90); test: HKDC1 hexokinase inhibitors, dose response, biochemical, W721R variant (AID 504729); assay type: functional
T4 sequence (Q2TB90 whole entry): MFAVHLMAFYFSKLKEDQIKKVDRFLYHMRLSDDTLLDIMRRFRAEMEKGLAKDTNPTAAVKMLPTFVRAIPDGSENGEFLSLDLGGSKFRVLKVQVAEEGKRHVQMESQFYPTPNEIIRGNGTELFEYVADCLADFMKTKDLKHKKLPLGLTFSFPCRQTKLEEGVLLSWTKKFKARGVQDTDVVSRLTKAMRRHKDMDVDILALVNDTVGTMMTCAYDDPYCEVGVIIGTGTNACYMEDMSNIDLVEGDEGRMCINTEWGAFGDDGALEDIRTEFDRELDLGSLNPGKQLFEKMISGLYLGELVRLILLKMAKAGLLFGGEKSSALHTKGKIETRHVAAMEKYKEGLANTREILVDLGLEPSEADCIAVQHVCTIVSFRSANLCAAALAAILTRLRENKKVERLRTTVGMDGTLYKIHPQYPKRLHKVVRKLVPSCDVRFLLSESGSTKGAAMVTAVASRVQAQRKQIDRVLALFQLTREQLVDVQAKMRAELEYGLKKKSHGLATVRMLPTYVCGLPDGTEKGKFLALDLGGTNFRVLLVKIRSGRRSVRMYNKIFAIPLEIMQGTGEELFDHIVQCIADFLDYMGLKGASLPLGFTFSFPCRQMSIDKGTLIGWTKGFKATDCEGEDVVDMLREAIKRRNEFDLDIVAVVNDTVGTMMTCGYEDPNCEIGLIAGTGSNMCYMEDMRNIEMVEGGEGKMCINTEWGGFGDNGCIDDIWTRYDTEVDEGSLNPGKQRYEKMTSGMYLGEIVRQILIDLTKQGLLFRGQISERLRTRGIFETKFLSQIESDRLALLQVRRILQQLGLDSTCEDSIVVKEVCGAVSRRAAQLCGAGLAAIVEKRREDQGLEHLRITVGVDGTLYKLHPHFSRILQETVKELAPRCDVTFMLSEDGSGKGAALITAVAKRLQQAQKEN

[16] = tested on: HeLa; test: HeLa cell cytotoxicity, dose response, cytotoxicity control for MITF activator project, CellTiter-Glo luminescence, cherry-pick samples (AID 540259); assay type: functional, cell-based; settings: Homo sapiens
[17] = target: T5, Heat shock factor protein 1 (Mus musculus, UniProt P38532); test: HSF1 potentiators in luciferase reporter cells, confirmation, cell-based, NIH3T3, luminescence, dose retest (AID 435004); assay type: functional;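 note: stress induced by proteasome inhibitor MG132 added 30 min after compound; luciferase reporter driven by HSF1 response element in NIH3T3 cells; actives raise luminescence as potentiators of the MG132 stress response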
T5 sequence (P38532 whole entry): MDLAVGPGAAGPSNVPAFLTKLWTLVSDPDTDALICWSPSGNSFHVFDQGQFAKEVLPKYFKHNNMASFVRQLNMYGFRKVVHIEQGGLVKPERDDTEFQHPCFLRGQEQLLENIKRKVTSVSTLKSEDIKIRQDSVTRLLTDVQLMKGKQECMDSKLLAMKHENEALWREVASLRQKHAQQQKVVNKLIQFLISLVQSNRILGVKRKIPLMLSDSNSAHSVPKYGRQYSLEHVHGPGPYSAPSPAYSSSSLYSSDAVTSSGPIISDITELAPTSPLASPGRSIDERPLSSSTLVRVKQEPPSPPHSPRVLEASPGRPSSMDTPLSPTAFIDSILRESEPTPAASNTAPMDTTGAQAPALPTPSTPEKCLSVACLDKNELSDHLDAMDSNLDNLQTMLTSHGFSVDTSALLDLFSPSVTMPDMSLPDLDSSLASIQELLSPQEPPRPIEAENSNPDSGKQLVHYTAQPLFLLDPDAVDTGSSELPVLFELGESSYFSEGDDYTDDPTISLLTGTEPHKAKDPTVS

[18] = Luminescence-based cell-based high throughput dose response assay to identify activators of the DAF-12 from the parasite S. stercoralis (ssDAF-12).; assay type: functional
[19] = target: Glucose-6-phosphate 1-dehydrogenase (Homo sapiens, UniProt P11413); test: human G6PD enzyme inhibitors, dose response, selectivity assay for P. falciparum G6PD inhibitor project, biochemical, fluorescence (AID 504792); assay type: functional
[20] = target: T6, Mitochondrial peptide methionine sulfoxide reductase (Bos taurus, UniProt P54149); assay type: functional;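 note: absorbance read-out, biochemical high-throughput dose-response screen for MsrA inhibitors, confirmatory; recombinant bovine MsrA coupled to E. coli TrxB with NADPH and selenocystamine; potency is for inhibitors of MsrA activity on DMSO substrate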
T6 sequence (P54149 whole entry): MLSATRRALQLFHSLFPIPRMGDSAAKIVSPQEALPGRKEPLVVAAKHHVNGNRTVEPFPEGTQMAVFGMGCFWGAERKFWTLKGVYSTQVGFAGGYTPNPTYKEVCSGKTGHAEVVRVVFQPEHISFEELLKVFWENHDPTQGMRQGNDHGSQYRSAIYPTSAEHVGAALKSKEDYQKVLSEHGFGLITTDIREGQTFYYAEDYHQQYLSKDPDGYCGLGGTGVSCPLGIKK

[21] = tested on: H9c2; test: cells; assay type: functional, cell-based; settings: Rattus norvegicus, H9c2, Myocardium;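 note: confirmatory concentration-response retest of ultra-high-throughput screening hits for modulation of myocardial damage; cell death induced by hydrogen peroxide oxidative stress; compound pretreatment for 60 min then peroxide exposure for 2 h; potency is for protecting the cells against peroxide damage rather than for killing them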
[22] = target: Luciferin 4-monooxygenase (Photinus pyralis, UniProt P08659); test: firefly luciferase enzyme inhibitors, dose response, biochemical, luminescence (AID 1891)
[23] = Luminescence Cell-Based Dose Confirmation HTS to Identify Inhibitors of Platelet Dense Granule Release. [Related pubchem assays: 1663 (Primary HTS), 1678 (Summary of Project)]; assay type: functional

Luciferin 4-monooxygenase, sequence (P08659 whole entry): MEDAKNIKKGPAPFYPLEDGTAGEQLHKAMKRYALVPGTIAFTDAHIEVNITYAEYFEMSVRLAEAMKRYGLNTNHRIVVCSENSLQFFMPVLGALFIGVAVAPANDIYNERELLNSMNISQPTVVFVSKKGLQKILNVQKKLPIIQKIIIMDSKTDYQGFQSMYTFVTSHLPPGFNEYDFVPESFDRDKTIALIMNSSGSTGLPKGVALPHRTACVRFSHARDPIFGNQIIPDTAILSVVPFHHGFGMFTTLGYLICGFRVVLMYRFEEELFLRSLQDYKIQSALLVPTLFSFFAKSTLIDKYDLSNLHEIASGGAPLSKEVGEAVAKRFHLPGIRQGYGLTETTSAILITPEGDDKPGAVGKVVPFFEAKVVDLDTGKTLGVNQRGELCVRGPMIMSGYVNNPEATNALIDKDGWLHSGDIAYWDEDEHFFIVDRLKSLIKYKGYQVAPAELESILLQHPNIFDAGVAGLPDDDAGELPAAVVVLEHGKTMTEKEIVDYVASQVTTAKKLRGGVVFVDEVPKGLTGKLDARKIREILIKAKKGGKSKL
26S proteasome non-ATPase regulatory subunit 14, sequence (O00487 whole entry): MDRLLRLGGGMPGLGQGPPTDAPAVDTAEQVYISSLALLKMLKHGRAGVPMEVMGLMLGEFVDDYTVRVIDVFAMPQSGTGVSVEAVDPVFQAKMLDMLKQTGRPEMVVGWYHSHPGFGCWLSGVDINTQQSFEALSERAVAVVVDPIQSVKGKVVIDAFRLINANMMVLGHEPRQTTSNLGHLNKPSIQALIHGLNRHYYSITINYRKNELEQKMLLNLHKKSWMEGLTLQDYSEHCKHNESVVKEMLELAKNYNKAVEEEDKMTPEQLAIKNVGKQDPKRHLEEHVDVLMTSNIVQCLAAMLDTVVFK
72 kDa type IV collagenase, sequence (P08253 whole entry): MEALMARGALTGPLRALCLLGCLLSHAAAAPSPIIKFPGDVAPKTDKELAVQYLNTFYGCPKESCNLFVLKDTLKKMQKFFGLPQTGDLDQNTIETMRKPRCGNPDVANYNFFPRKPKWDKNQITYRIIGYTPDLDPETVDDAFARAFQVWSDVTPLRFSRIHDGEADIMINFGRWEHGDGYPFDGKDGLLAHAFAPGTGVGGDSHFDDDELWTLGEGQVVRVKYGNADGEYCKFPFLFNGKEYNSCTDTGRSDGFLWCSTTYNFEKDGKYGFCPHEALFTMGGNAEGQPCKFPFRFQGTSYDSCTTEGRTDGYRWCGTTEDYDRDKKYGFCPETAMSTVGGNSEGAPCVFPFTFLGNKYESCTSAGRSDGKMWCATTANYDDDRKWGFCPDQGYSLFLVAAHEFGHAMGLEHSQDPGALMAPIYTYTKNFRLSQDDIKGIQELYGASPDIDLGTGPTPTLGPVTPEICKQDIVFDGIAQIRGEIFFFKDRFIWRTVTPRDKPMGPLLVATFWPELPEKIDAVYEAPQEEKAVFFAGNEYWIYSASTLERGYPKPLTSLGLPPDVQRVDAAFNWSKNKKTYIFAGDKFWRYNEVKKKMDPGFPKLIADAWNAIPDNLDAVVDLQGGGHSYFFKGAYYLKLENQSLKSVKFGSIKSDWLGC
Nonstructural protein 1, sequence (Q194T2 whole entry): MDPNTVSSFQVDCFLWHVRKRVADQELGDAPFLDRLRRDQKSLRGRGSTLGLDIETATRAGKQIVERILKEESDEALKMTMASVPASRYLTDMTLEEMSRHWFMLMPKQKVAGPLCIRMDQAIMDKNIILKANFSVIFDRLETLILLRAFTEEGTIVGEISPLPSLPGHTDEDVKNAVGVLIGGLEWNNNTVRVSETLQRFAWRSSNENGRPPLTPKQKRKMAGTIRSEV
Glucose-6-phosphate 1-dehydrogenase, sequence (P11413 whole entry): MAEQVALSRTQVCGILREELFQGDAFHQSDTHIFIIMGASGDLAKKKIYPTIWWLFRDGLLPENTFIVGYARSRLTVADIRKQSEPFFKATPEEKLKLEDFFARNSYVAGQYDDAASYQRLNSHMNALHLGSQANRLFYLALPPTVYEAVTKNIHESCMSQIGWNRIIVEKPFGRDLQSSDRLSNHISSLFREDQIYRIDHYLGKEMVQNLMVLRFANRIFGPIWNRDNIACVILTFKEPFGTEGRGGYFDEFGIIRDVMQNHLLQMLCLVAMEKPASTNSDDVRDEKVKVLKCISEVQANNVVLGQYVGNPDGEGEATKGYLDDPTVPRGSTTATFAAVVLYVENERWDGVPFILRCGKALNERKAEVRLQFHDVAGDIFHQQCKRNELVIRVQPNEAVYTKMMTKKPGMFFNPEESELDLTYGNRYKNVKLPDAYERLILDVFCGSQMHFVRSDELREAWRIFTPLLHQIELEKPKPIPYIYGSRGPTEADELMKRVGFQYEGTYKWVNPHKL
Keap1/Nrf2, sequence (Q16236 whole entry): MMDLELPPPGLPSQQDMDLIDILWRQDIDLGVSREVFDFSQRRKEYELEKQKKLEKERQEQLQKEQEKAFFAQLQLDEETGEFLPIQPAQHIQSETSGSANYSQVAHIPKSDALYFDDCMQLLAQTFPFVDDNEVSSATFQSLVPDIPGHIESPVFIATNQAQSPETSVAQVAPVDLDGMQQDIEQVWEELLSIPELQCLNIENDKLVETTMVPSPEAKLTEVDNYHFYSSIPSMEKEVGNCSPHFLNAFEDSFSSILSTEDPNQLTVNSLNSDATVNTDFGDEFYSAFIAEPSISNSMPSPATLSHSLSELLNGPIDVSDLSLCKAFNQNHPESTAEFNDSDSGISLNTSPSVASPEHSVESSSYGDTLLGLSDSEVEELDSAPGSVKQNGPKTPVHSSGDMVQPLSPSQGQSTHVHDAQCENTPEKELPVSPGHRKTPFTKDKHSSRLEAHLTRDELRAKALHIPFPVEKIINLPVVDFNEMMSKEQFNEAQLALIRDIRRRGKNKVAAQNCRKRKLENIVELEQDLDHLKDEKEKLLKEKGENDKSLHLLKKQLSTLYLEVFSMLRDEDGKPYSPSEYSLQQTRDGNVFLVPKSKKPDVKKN
Keap1/Nrf2, sequence (Q14145 whole entry): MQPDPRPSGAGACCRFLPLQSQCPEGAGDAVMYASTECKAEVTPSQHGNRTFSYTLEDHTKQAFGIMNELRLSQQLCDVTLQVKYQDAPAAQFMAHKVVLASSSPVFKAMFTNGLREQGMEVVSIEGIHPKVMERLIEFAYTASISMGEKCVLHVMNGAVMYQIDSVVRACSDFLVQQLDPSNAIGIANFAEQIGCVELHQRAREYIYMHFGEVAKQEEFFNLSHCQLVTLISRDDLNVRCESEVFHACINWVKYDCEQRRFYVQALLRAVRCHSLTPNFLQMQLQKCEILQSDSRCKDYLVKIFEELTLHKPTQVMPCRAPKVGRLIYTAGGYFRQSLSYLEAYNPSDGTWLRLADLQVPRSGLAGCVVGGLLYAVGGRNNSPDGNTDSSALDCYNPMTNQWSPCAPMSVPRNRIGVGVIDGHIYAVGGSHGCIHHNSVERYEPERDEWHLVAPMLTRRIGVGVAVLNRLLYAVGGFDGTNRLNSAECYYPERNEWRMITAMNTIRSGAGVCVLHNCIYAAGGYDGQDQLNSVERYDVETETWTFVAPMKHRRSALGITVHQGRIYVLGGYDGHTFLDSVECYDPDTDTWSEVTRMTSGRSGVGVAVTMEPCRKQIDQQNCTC
Genome polyprotein, sequence (P29990 2492-3391 limits assumed): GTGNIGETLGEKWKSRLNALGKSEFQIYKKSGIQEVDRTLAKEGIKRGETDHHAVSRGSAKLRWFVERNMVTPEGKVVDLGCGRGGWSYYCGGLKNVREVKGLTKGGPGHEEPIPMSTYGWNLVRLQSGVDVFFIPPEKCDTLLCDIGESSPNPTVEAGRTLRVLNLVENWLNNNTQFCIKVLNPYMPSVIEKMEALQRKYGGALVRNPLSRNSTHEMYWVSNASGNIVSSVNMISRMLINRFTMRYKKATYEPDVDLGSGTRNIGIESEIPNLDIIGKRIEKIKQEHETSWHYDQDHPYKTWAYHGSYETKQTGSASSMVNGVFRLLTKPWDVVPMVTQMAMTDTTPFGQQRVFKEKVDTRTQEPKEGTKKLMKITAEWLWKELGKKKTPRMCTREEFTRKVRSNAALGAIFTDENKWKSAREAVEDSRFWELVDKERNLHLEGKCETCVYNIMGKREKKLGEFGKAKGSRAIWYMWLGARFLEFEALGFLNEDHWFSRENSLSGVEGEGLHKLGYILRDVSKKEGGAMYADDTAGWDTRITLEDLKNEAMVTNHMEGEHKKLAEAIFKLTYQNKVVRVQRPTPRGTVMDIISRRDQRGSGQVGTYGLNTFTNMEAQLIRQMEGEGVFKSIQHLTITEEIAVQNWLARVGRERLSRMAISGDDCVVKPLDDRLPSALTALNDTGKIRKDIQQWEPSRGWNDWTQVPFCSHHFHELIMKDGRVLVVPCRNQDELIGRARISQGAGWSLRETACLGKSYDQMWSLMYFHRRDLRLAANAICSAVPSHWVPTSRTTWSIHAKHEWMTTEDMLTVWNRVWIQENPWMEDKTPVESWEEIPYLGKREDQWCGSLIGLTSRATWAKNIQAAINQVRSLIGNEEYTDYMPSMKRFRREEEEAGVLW

Compound: C/C(C/C(C)=C1/SC(=S)NC1=O)=C1\SC(=S)NC1=O
- AC50 [1]: 7.93 µM (active)
- IC50 [2]: 87.5 µM (active)
- AC50 [3]: > 52 µM (inactive)
- IC50 [4]: 43.6 µM (active)
- IC50 [5]: 0.302 µM (active)

Compound: COc1cc(OC)c(-c2nc3ccccc3s2)cc1OC
- IC50 [6]: 5.47 µM (active)
- IC50 [7]: > 50 µM (inactive)
- IC50 [8]: 0.46 µM (active)
- IC50 [9]: > 66.2 µM (inactive)
- IC50 [10]: > 88.8 µM (inactive)
- IC50 [11]: > 49.7 µM (inactive)

Compound: Cc1ccc(SC2=C(N(C)C)C(=O)c3ccccc3C2=O)cc1
- CC50 [12]: 22.1 µM (active)
- IC50 [13]: 65 µM (active)
- IC50 [14]: 8.5 µM (active)
- IC50 [15]: 6.72 µM (active)

Compound: CC(C)(C)C(=O)Nc1nc2cc3c(cc2s1)OCO3
- AC50 [16]: 51.9 µM (active)

Compound: CC1(C)CC(=O)c2c(O)cc(OCc3ccc(Br)cc3)cc2O1
- AC50 [16]: 70.4 µM (active)

Compound: N#CC1=C(N)Oc2c(O)cc3ccccc3c2C1c1ccsc1 (stereo unspecified)
- CC50 [12]: > 40 µM (active)
- EC50 [17]: 41.5 µM (active)
- IC50 [18]: > 67.5 µM (inactive)
- IC50 [19]: > 80 µM (inactive)
- IC50 [20]: 155 µM (inactive)
- IC50 [21]: > 79 µM (inactive)

Compound: CSc1nc(N)n2nc(-c3ccc(Cl)cc3)cc2n1
- EC50 [22]: 0.464 µM (active)
- AC50 [16]: 71.6 µM (active)
- EC50 [23]: 3.88 µM (active)
